Read-outs that look alike come from different tables or passages of the source.
Columns and labels:
[1] = biological target: T1, TRKA Protein (wild type) (Homo sapiens, UniProt P04629); test: Detection of TRK inhibitory activity (ADP-Glo kinase assay), TRKA wild type; type: biochemical; settings: 35 min at room temperature
T1 construct: purchased abcam ab60887
Procedure: (§1) An enzyme reaction buffer was prepared containing 25 mM MOPS, 5 mM MgCl2, 500 μM DTT and 0.005% Triton, and then adjusted to pH 7.5.
(§2) The test compound was diluted with DMSO to 200 times of the desired final concentration, and mixed evenly, then 3 μL of the solution was pipetted to 117 μL of enzyme reaction buffer and mixed thoroughly. Then, 3 μL of the enzyme reaction buffer containing the test compound was pipetted to a 96-well PCR plate. The positive and negative control wells were filled with 3 μL of enzyme reaction buffer containing 2.5% DMSO, respectively. TRK protein was diluted to 0.4 ng/μL with the enzyme reaction buffer, and 6 μL of diluted TRK protein was added to each well except for the well for the blank control group, in which 6 μL of the enzyme reaction buffer was added. The reaction plate was centrifuged at 1000 rpm/min for 1 minute, and the compound and TRK were pre-incubated at room temperature for 10 minutes. A mixed solution with ATP at a concentration of 160 μM and substrate at a concentration of 1 μM was prepared with the enzyme reaction buffer, and 6 μL of the mixed solution was added to each reaction well. The reaction plate was centrifuged at 1000 rpm/min for 1 minute, and incubated at room temperature for 35 minutes. After the enzyme reaction was completed, 15 μL of ADP-Glo was added to each reaction well. The reaction plate was centrifuged at 1000 rpm/min for 1 minute, and incubated at room temperature for 40 minutes. Then 15 μL of the reaction solution from each well was transferred to a 384-well plate, and then 15 μL of detection substrate was added to each corresponding well of the 384-well plate. The 384-well plate was centrifuged at 1000 rpm/min for 1 minute, and incubated at room temperature for 40 minutes. After the reaction, a microplate reader was used to read the cold luminescence signal value in the 384-well plate.
(§3) The residual viability percentage of each concentration was calculated with the following formula: Residual viability (%)=100*(Lumincompond−Luminblank control)/(Luminpostive control−Luminblank control)
(§4) Then, GraphPad 5.0 was fitted to the effect curve to calculate the IC50 value.

[2] = biological target: TRKA (G667C) (Homo sapiens, UniProt P04629, G667C); test: Detection of TRK inhibitory activity (ADP-Glo kinase assay), TRKA (G667C); type: biochemical
Procedure: as §1, §2, §3, §4

[3] = tested on: Ba/F3 ETV6-NTRK3-G623R cell line; test: Cell experiment, CellTiter-Glo viability, Ba/F3 ETV6-NTRK3-G623R; type: cell-based; settings: Mus musculus, BaF3, 72 hours, CTG
Procedure: Cell culture and seeding: (1) cells in logarithmic growth phase were harvested and counted using a […]. The cell viability was detected by trypan blue exclusion method to ensure that the cell viability was above 90%. (2) The cell concentration was adjusted; and 90 μl of cell suspension was added to the 96-well plate.
10 μl of drug solution was added to each well in a 96-well plate inoculated with cells, triplicate per concentration.
End-point for reading: (1) The CTG reagent was thawed and the cell plate was equilibrated to room temperature for 30 minutes. (2) Equal volume of CTG solution was added to each well. (3) The plated was shaken on an orbital shaker for 5 minutes to lyse the cells. (4) The cell plate was placed at room temperature for 20 minutes to stabilize the cold light signal. (5) The cold light value was read.
GraphPad Prism 7.0 software was used to analyze the data, and nonlinear S-curve regression was fitted the data to get the dose-effect curve, and the IC50 value was calculated therefrom. Cell survival (%)=(Lumtest drug−Lumculture control)/(Lumcell control−Lumculture control)×100%.

Sequence of TRKA (G667C) (P04629 33-796 G667C): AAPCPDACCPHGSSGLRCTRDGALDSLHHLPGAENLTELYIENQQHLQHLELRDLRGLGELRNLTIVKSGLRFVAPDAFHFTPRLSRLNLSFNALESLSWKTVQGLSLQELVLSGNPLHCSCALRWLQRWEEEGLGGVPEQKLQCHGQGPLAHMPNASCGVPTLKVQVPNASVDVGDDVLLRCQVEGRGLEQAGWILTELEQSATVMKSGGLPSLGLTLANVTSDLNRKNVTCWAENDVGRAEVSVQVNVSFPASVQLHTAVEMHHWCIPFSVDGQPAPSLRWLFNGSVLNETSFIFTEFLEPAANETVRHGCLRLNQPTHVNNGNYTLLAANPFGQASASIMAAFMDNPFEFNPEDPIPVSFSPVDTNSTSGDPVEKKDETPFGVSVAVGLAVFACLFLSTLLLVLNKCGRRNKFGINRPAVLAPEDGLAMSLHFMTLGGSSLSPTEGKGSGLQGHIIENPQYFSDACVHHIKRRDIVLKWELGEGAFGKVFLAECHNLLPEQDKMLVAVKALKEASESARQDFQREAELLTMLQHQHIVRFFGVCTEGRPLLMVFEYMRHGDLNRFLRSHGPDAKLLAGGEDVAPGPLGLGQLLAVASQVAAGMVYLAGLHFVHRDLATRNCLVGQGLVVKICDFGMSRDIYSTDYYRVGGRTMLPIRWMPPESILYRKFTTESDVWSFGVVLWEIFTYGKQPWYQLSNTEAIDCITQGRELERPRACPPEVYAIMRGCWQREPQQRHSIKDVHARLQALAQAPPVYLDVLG
T1 sequence (P04629 33-796): as the sequence (P04629 33-796 G667C) above, with C635G counted along it

Structure (SMILES)	IC50 [1] [µM]	IC50 [2] [µM]	other results
CCOC(=O)c1cnc2ccc3nc2c1N[C@H](C)CCOc1ccc(F)cc1[C@H]1CCCN31			ring closure, yield of all isomers (from CCOC(=O)c1cnc2ccc(Cl)nc2c1N[C@H](C)CCOc1ccc(F)cc1[C@H]1CCCN1, cn_pd bond, Pd2(dba)3/SPhos/Cs2CO3, toluene, 64.4 mM, 100.0 °C, 16.0 h): 54%
COc1ccc(CN2CC[C@H](C)Oc3ccc(F)cc3[C@H]3CCCN3c3ccc4ncnc2c4n3)c(OC)c1			ring closure, yield of all isomers (from COc1ccc(CN(CC[C@@H](C)O)c2ncnc3ccc(N4CCC[C@@H]4c4cc(F)ccc4O)nc23)c(OC)c1, ether bond, DIAD/triphenylphosphine (printed as triphenylphosphine oxide), tetrahydrofuran, 72.0 mM, 25.0 °C, 3.0 h): 72.3%
C[C@H]1CCNc2c(C(=O)O)cnc3ccc(nc23)N2CCC[C@@H]2c2cc(F)ccc2O1			ring closure, yield of all isomers (from C[C@@H](CCNc1c(C(=O)O)cnc2ccc(Cl)nc12)Oc1ccc(F)cc1[C@H]1CCCN1, cn_pd bond, Pd2(dba)3/SPhos/Cs2CO3, toluene, 62.5 mM, 100.0 °C, 16.0 h): 52%
C[C@H]1CCNc2c(C#N)cnc3ccc(nc23)N2CCC[C@@H]2c2cc(F)ccc2O1 [Example 2, (6R,14S)-9-fluoro-14-methyl-3-oxa-2,17,21,25-tetraazapentacyclo [16.6.2.0^2,^6.0^7,^12.0^22,^26]hexacosane-1(25),7,9,11,18(26),19,21,23-octane-19-nitrile]	< 0.05	< 0.05	
CN1Cc2cc(F)ccc2OCCCNc2ncnc3ccc1nc23 [Example 3, 6-fluoro-2-methyl-10-oxa-2,14,16,18,22-pentaazatetracyclo [13.6.2.0^4,^9.0^19,^23] tricosane-1(22),4,6,8,15(23),16,18,20-octane]	< 0.05	< 0.05	
CN1Cc2cc(F)ccc2OCCNc2ncnc3ccc1nc23 [Example 4, 6-fluoro-2-methyl-10-oxa-2,13,15,17,21-pentaazatetracyclo [12.6.2.0^4,9.0^18,^22]docosane-1(21),4,6,8,14(22),15,17,19-octane]	0.05 to 0.5		
C[C@@H]1CCOc2ccc(F)cc2CN(C)c2ccc3ncnc(c3n2)N1 [Example 5, (13R)-6-fluoro-2,13-dimethyl-10-oxa-2,14,16,18,22-pentaazatetracyclo[13.6.2.0^4,^9.0^19,^23]tricosane-1(22),4,6,8,15(23),16,18,20-octane]	< 0.05	< 0.05	
C[C@@H]1CCOc2ccc(F)cc2[C@H]2CCCN2c2ccc3ncnc(c3n2)N1 [Example 6, (6R,16R)-9-fluoro-16-methyl-13-oxa-2,17,19,21,25-pentaazapentacyclo[16.6.2.0^2,^6.0^7,^12.0,^26]hexacosane-1(25),7,9,11,18(26),19,21,23-octane]	< 0.05	< 0.05	IC50 [3]: 0.0421 µM; IC90 [3]: 0.0942 µM
C[C@H]1CCNc2ncnc3ccc(nc23)N2CCC[C@@H]2c2cc(F)ccc2O1 [Example 7, (6R,14S)-9-fluoro-14-methyl-13-oxa-2,17,19,21,25-pentaazapentacyclo[16.6.2.0^2,^6.0^7,^12.0^22,^26]hexacosane-1(25),7,9,11,18(26),19,21,23-octane]	< 0.05	< 0.05	IC50 [3]: 0.0036 µM; IC90 [3]: 0.0087 µM
C[C@H]1CCOc2ccc(F)cc2[C@H]2CCCN2c2ccc3ncc(C#N)c(c3n2)N1 [Example 8, (6R,16S)-9-fluoro-16-methyl-3-oxa-2,17,21,25-tetraazapentacyclo [16.6.2.0^2,^6.0^7,^12.0^22,^26]hexacosane-1(25),7,9,11,18(26),19,21,23-octane-19-nitrile]	< 0.05		
CCOC(=O)c1cnc2ccc3nc2c1NCCCOc1ccc(F)cc1[C@H]1CCCN31 [Example 9, ethyl (6R)-9-fluoro-13-oxa-2,17,21,25-tetraazapentacyclo [16.6.2.0^2,^6.0^7,^12.0^22,^26]hexacosane-1(25),7,9,11,18(26),19,21,23-octane-19-carboxylate]	< 0.05	> 0.5	
O=C(O)c1cnc2ccc3nc2c1NCCCOc1ccc(F)cc1[C@H]1CCCN31 [Example 10, (6R)-9-fluoro-13-oxa-2,17,21,25-tetraazapentacyclo [16.6.2.0^2,^6.0^7,^12.0^22,^26]hexacosane-1(25),7,9,11,18(26),19,21,23-octane-19-carboxylic acid]	0.05 to 0.5		
NC(=O)c1cnc2ccc3nc2c1NCCCOc1ccc(F)cc1[C@H]1CCCN31 [Example 11, (6R)-9-fluoro-13-oxa-2,17,21,25-tetraazapentacyclo [16.6.2.0^2,^6.0^7,^12.0^22,^26]hexacosane-1(25),7,9,11,18(26),19,21,23-octane-19-carboxamide]	< 0.05	< 0.05	
N#Cc1cnc2ccc3nc2c1NCCCOc1ccc(F)cc1[C@H]1CCCN31 [Example 12, (6R)-9-fluoro-13-oxa-2,17,21,25-tetraazapentacyclo [16.6.2.0^2,^6.0^7,^12.0^22,^26]hexacosane-1(25),7,9,11,18(26),19,21,23-octane-19-nitrile]	< 0.05	< 0.05	
C[C@H]1CCOc2ccc(F)cc2[C@@H]2CCCN2c2ccc3ncc(C#N)c(c3n2)N1 [Example 13, (6S,16S)-9-fluoro-16-methyl-13-oxa-2,17,21,25-tetraazapentacyclo [16.6.2.0^2,^6.0^7,^12.0^22,^26]hexacosane-1(25),7,9,11,18(26),19,21,23-octane-19-nitrile]	0.05 to 0.5		
C[C@@H]1CCOc2ccc(F)cc2[C@@H]2CCCN2c2ccc3ncc(C#N)c(c3n2)N1 [Example 14, (6S,16R)-9-fluoro-16-methyl-3-oxa-2,17,21,25-tetraazapentacyclo [16.6.2.0^2,^6.0^7,^12.0^22,^26]hexacosane-1(25),7,9,11,18(26),19,21,23-octane-19-nitrile]	0.05 to 0.5		
Fc1cnc2c(c1)[C@H]1CCCN1c1ccc3ncnc(c3n1)NCCCC2 [Example 15, (6R)-9-fluoro-2,11,17,19,21,25-hexaazapentacyclo [16.6.2.0^2,^6.0^7,^12.0^22,^26]hexacosane-1(25),7,9,11,18(26),19,21,23-octane]	< 0.05	< 0.05	
C[C@@H]1CCCc2ncc(F)cc2[C@H]2CCCN2c2ccc3ncnc(c3n2)N1 [Example 16, (6R,16R)-9-fluoro-16-methyl-2,11,17,19,21,25-hexaazapentacyclo [16.6.2.0^2,^6.0^7,^12.0^22,^26]hexacosane-1(25),7,9,11,18(26),19,21,23-octane]	< 0.05	< 0.05	
C[C@H]1Nc2ccc3ncnc(c3n2)NCCCOc2ccc(F)cc21 [Example 17, 6-fluoro-3-methyl-10-oxa-2,14,16,18,22-pentaazatetracyclo [13.6.2.0^4,^9.0^19,^23] tricosane-1 (22),4,6,8,15(23),16,18,20-octane]	< 0.05	< 0.05	ring closure, yield of all isomers (from C[C@@H](N)c1cc(F)ccc1OCCCNc1ncnc2ccc(Cl)nc12, cn_pd bond, Pd2(dba)3/SPhos/Cs2CO3, toluene, 12.2 mM, 110.0 °C, 16.0 h): 5.4%
C[C@@H]1CCOc2ccc(F)cc2[C@@H](C)Nc2ccc3ncc(F)c(c3n2)N1 [Example 18, (R,R)-6,16-difluoro-3,13-dimethyl-10-oxa-2,14,18,22-tetraazatetracyclo[13.6.2.0^4,^9.0^19,^23]tricosane-1(22),4,6,8,15(23),16,18,20-octane]	< 0.05	< 0.05	ring closure, yield of all isomers (from C[C@H](CCOc1ccc(F)cc1[C@@H](C)N)Nc1c(F)cnc2ccc(Cl)nc12, cn_pd bond, SPhos Pd G3/SPhos/Cs2CO3, toluene, 90.0 mM, 100.0 °C, 16.0 h): 8.2%
C[C@@H]1CCOc2ccc(F)cc2[C@H]2CCCN2c2ccc3ncc(F)c(c3n2)N1 [Example 19, (6R,16R)-9,19-difluoro-16-methyl-13-oxa-2,17,21,25-tetraazapentacyclo[16.6.2.0^2,^6.0^7,^12.0^22,^26]hexacosane-1(25),7,9,11,18(26),19,21,23-octane]	< 0.05	< 0.05	ring closure, yield of all isomers (from C[C@H](CCOc1ccc(F)cc1[C@H]1CCCN1)Nc1c(F)cnc2ccc(Cl)nc12, cn_pd bond, SPhos Pd G3, toluene/tert-butanol, 35.0 mM, 100.0 °C, 16.0 h): 8.1%

From patent US11584759B2, “Macrocyclic kinase inhibitor” (HITGEN INC., priority 2018, dated 2023)
